Experimental data from patent US20220062240A1, “METHODS OF TREATING CANCER USING A CLK INHIBITOR” (BioSplice Therapeutics, Inc., priority 2018, published 2022).
Where two headings read alike, the source gives them in different places.

Key:
Type in all cases: cell-based
[1] = system: prostate cancer (5 cell lines); assay: CellTiter-Glo Viability Assay, prostate cancer; details: Homo sapiens
all 50 cell lines = assay: CellTiter-Glo Viability Assay, average across all cell lines; details: Homo sapiens; across all 50 cell lines; read-out: average EC50 for inhibition of cancer cell proliferation
In short: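 4-day proliferation, 37° C/5% CO2; 300-3,000 cells/well; compound in duplicate vs DMSO controls. Panel: breast, colorectal, heme/lymphoid, liver, lung, ovarian, pancreatic, prostate lines. Read-out: CellTiter-Glo ATP luminescence, EC50 from dose-response.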

[2] = system: ovarian cancer (4 cell lines); assay: CellTiter-Glo Viability Assay, ovarian cancer; details: Homo sapiens, inhibition of cancer cell proliferation
[3] = system: lung cancer (4 cell lines); assay: CellTiter-Glo Viability Assay, lung cancer; details: Homo sapiens, inhibition of cancer cell proliferation
[4] = system: haematopoietic & lymphoid tumors (13 cell lines); assay: CellTiter-Glo Viability Assay, haematopoietic & lymphoid tumors; details: Homo sapiens, inhibition of cancer cell proliferation
[5] = system: colorectal cancer (6 cell lines); assay: CellTiter-Glo Viability Assay, colorectal cancer; details: Homo sapiens, inhibition of cancer cell proliferation
[6] = system: liver cancer (3 cell lines); assay: CellTiter-Glo Viability Assay, liver cancer; details: Homo sapiens, inhibition of cancer cell proliferation
[7] = system: pancreatic cancer (8 cell lines); assay: CellTiter-Glo Viability Assay, pancreatic cancer; details: Homo sapiens, inhibition of cancer cell proliferation
T47D = assay: CellTiter-Glo Viability Assay, breast cancer; details: Homo sapiens, 96 h, breast cancer, four days, read-out: EC50
DU4475 = assay: CellTiter-Glo Viability Assay, breast cancer; details: Homo sapiens, DU-4475, 96 h; DU4475, breast cancer, four days; read-out: EC50
CAMA1 = assay: CellTiter-Glo Viability Assay, breast cancer; details: Homo sapiens, CAMA-1, 96 h; CAMA1, breast cancer, four days; read-out: EC50
MCF7 = assay: CellTiter-Glo Viability Assay, breast cancer; details: Homo sapiens, 96 h; MCF7, breast cancer, four days; read-out: EC50
HCC1599 = assay: CellTiter-Glo Viability Assay, breast cancer; details: Homo sapiens, 96 h; HCC1599, breast cancer, four days; read-out: EC50
ZR-75-1 = assay: CellTiter-Glo Viability Assay, breast cancer; details: Homo sapiens, 96 h; ZR-75-1, breast cancer, four days; read-out: EC50
MDA-MB-231-Luc = assay: CellTiter-Glo Viability Assay, breast cancer; details: Homo sapiens, 96 h; MDA-MB-231-Luc, breast cancer, four days; read-out: EC50
BT-549 = assay: CellTiter-Glo Viability Assay, breast cancer; details: Homo sapiens, 96 h; BT-549, breast cancer, four days; read-out: EC50

For Cc1ncc(C(=O)Nc2cc3nc(-c4cnc(C)n4C)ccc3cn2)s1 [Compound 82], which EC50 ([1]; DU-145, read-out: Prostate cancer EC50 Du-145) is on record?
The EC50 was 360 nM.

What about the EC50 ([1]; PC-3, PC3 cell line, inhibition of cancer cell proliferation, read-out: Prostate cancer EC50 PC3) of the same compound?
The EC50 was 287 nM.

What about the EC50 ([1]; 22Rv1 cell line, inhibition of cancer cell proliferation, read-out: Prostate cancer EC50 22Rv1) of the same compound?
The EC50 was 218 nM.

What about the EC50 ([1]; LNCap clone FGC cell line, inhibition of cancer cell proliferation, read-out: Prostate cancer EC50 LNCap clone FGC) of the same compound?
The EC50 was 293 nM.

What about the EC50 ([1]; VCaP (Sigma) cell line, inhibition of cancer cell proliferation, read-out: Prostate cancer EC50 VCaP (Sigma)) of the same compound?
Its EC50 is 770 nM.

And the EC50 (all 50 cell lines)?
Its EC50 is 282 nM.

What about the EC50 ([2]; PA-1, PA1 cell line, read-out: Ovarian cancer, EC50 (μM) PA1) of the same compound?
The EC50 was 0.175 µM.

And the EC50 ([2]; TOV112D, TOV-112D cell line, read-out: Ovarian cancer, EC50 (μM) TOV-112D)?
The EC50 was 0.147 µM.

What about the EC50 ([2]; OV-90 cell line, read-out: Ovarian cancer, EC50 (μM) OV-90) of the same compound?
Its EC50 is 0.628 µM.

And the EC50 ([2]; OVCAR-3 cell line, read-out: Ovarian cancer, EC50 (μM) OVCAR-3)?
Its EC50 is 0.073 µM.

And the EC50 ([3]; A-427, A427 cell line, read-out: Lung cancer, EC50 (μM) A427)?
The EC50 was 0.236 µM.

And the EC50 ([3]; HCC78, HCC-78 cell line, read-out: Lung cancer, EC50 (μM) HCC-78)?
Its EC50 is 0.308 µM.

What about the EC50 ([3]; NCI-H460 cell line, read-out: Lung cancer, EC50 (μM) NCI-H460) of the same compound?
The EC50 was 0.257 µM.

What about the EC50 ([3]; NCI-H522 cell line, read-out: Lung cancer, EC50 (μM) NCI-H522) of the same compound?
Its EC50 is 0.19 µM.

And the EC50 ([4]; DND41, DND-41 cell line, read-out: Haematopoietic & Lymphoid tumors, EC50 (μM) DND-41)?
The EC50 was 0.288 µM.

And the EC50 ([4]; MV4-11, MV-4-11 cell line, read-out: Haematopoietic & Lymphoid tumors, EC50 (μM) MV-4-11)?
The EC50 was 0.081 µM.

What about the EC50 ([4]; Rec1, REC-1 cell line, read-out: Haematopoietic & Lymphoid tumors, EC50 (μM) REC-1) of the same compound?
Its EC50 is 0.103 µM.

What about the EC50 ([4]; SU-DHL-4, SUDHL4 cell line, read-out: Haematopoietic & Lymphoid tumors, EC50 (μM) SUDHL4) of the same compound?
Its EC50 is 0.292 µM.

What about the EC50 ([4]; HL-60 cell line, read-out: Haematopoietic & Lymphoid tumors, EC50 (μM) HL-60) of the same compound?
Its EC50 is 0.221 µM.

What about the EC50 ([4]; JM1 cell line, read-out: Haematopoietic & Lymphoid tumors, EC50 (μM) JM1) of the same compound?
Its EC50 is 0.137 µM.

And the EC50 ([4]; JURKAT, Clone E6-1 cell line, read-out: Haematopoietic & Lymphoid tumors, EC50 (μM) JURKAT, Clone E6-1)?
The EC50 was 0.169 µM.

What about the EC50 ([4]; JeKo-1 cell line, read-out: Haematopoietic & Lymphoid tumors, EC50 (μM) JeKo-1) of the same compound?
The EC50 was 0.125 µM.

What about the EC50 ([4]; KASUMI-1 cell line, read-out: Haematopoietic & Lymphoid tumors, EC50 (μM) KASUMI-1) of the same compound?
The EC50 was 0.163 µM.

And the EC50 ([4]; Loucy cell line, read-out: Haematopoietic & Lymphoid tumors, EC50 (μM) Loucy)?
The EC50 was 0.206 µM.

What about the EC50 ([4]; MOLT-4 cell line, read-out: Haematopoietic & Lymphoid tumors, EC50 (μM) MOLT-4) of the same compound?
Its EC50 is 0.233 µM.

What about the EC50 ([4]; TF-1 cell line, read-out: Haematopoietic & Lymphoid tumors, EC50 (μM) TF-1) of the same compound?
The EC50 was 0.316 µM.

And the EC50 ([4]; TOLEDO cell line, read-out: Haematopoietic & Lymphoid tumors, EC50 (μM) TOLEDO)?
Its EC50 is 0.117 µM.

What about the EC50 ([5]; HCT-116, HCT116 cell line, read-out: Colorectal cancer, EC50 (μM) HCT116) of the same compound?
The EC50 was 0.168 µM.

What about the EC50 ([5]; HT-29, HT29 cell line, read-out: Colorectal cancer, EC50 (μM) HT29) of the same compound?
The EC50 was 0.252 µM.

And the EC50 ([5]; SW-620, SW620 cell line, read-out: Colorectal cancer, EC50 (μM) SW620)?
The EC50 was 0.143 µM.

What about the EC50 ([5]; DLD-1 cell line, read-out: Colorectal cancer, EC50 (μM) DLD-1) of the same compound?
Its EC50 is 0.193 µM.

And the EC50 ([5]; SW48 cell line, read-out: Colorectal cancer, EC50 (μM) SW48)?
The EC50 was 0.122 µM.

What about the EC50 ([5]; SW480 cell line, read-out: Colorectal cancer, EC50 (μM) SW480) of the same compound?
The EC50 was 0.339 µM.

What about the EC50 ([6]; SNU-398, SNU398 cell line, read-out: Liver cancer, EC50 SNU398) of the same compound?
The EC50 was 123 nM.

What about the EC50 ([6]; HEPG2 cell line, read-out: Liver cancer, EC50 HEPG2) of the same compound?
The EC50 was 485 nM.

And the EC50 ([6]; PLC/PRF/5 cell line, read-out: Liver cancer, EC50 PLC/PRF/5)?
The EC50 was 613 nM.

What about the EC50 ([7]; BXPC-3, BxPC3 cell line, read-out: Pancreatic cancer, EC50 BxPC3) of the same compound?
The EC50 was 199 nM.

And the EC50 ([7]; CAPAN-1, Capan1 cell line, read-out: Pancreatic cancer, EC50 Capan1)?
Its EC50 is 269 nM.

And the EC50 ([7]; Capan-2, Capan2 cell line, read-out: Pancreatic cancer, EC50 Capan2)?
Its EC50 is 579 nM.

What about the EC50 ([7]; MIA PaCa-2 cell line, read-out: Pancreatic cancer, EC50 MIA PaCa-2) of the same compound?
Its EC50 is 159 nM.

What about the EC50 ([7]; PANC 05.04 cell line, read-out: Pancreatic cancer, EC50 PANC 05.04) of the same compound?
The EC50 was 279 nM.

And the EC50 ([7]; PANC-1 cell line, read-out: Pancreatic cancer, EC50 PANC-1)?
The EC50 was 514 nM.

And the EC50 ([7]; UPAFII cell line, read-out: Pancreatic cancer, EC50 UPAFII)?
The EC50 was 169 nM.

And the EC50 (T47D)?
The EC50 was 451 nM.

What about the EC50 (DU4475) of the same compound?
Its EC50 is 148 nM.

And the EC50 (CAMA1)?
The EC50 was 244 nM.

What about the EC50 (MCF7) of the same compound?
The EC50 was 942 nM.

What about the EC50 (HCC1599) of the same compound?
Its EC50 is 154 nM.

What about the EC50 (ZR-75-1) of the same compound?
Its EC50 is 440 nM.

And the EC50 (MDA-MB-231-Luc)?
The EC50 was 462 nM.

What about the EC50 (BT-549) of the same compound?
Its EC50 is 277 nM.
